Common to all, as to assay type: biochemical
For one experiment, the target named is CDK3/cyclinE (h) (Homo sapiens, UniProt Q00526). The experiment can be described thus: Kinase profiling C3.5 CDK3/cyclinE human. Conditions: test concentration of 10^−6 M. As to the method: (§1) The in vitro inhibition of a panel of kinases was assessed using either the glass-fiber filter technology as described by Davies, S. P. et al., Biochem J. (2000), 351; p. 95-105. In the glass-fiber filter technology the activity of the kinase of interest is measured using an appropriate substrate that is incubated with the aforementioned kinase protein in the presence of (^33P) radiolabeled ATP. (^33P) Phosporylation of the substrate is subsequently measured as radioactivity bound on a glassfiber-filter.
(§2) All kinases are pre-diluted to a 10× working concentration prior to addition into the assay. The composition of the dilution buffer for each kinase is detailed below.
(§3) All substrates are dissolved and diluted to working stocks in de-ionised water, apart from histone H1 that is stored in 10× working stock in 20 mM MOPS pH 7.4.
(§4) In a final reaction volume of 25 μl, CDK3/cyclinE (h) (5-10 mU) is incubated with 8 mM MOPS pH 7.0, 0.2 mM EDTA, 0.1 mg/ml histone H1, 10 mM MgAcetate and [γ-^33P-ATP] (specific activity approx. 500 cpm/pmol, concentration as required). The reaction is initiated by the addition of the MgATP mix. After incubation for 40 minutes at room temperature, the reaction is stopped by the addition of 5 μl of a 3% phosphoric acid solution. 10 μl of the reaction is then spotted onto a P30 filtermat and washed three times for 5 minutes in 75 mM phosphoric acid and once in methanol prior to drying and scintillation counting.

A further experiment deals with GSK-3β (Homo sapiens, UniProt P49841). The experiment can be described thus: GSK-3 kinase assay (C1), GSK-3β. The following applies: 1 μM ATP; for IC50: read-out: C1 Score β. As to the method: (§5) In vitro GSK-3 assays were performed at room temperature in a 100 μl reaction volume of 25 mM Tris (pH 7.4) containing 10 mM MgCl2.6H2O, 1 mM DTT, 0.1 mg/ml BSA, 5% glycerol, 5.7 ng/μl GSK-3β or 0.25 ng/μl GSK-3α, 5 μM biotinylated CREB peptide, 1 μM ATP, 0.85 μCi/ml ^33P-ATP and a suitable amount of a test compound. After one hour, the reaction was terminated by adding 70 μl of Stop mix (0.1 mM ATP, 5 mg/ml streptavidin coated PVT SPA beads, pH 11.0). The beads were allowed to settle overnight and the radioactivity attached to the beads was counted in a microtiter plate scintillation counter and compared with the results obtained in a control experiment (without the presence of a test compound) in order to determine the percentage of GSK-3 inhibition. The IC50 value, i.e. the concentration (M) of the test compound at which 50% of GSK-3 is inhibited, was calculated from the dose response curve obtained by performing the above-described GSK-3 assay in the presence of different amounts of the test compound. Score 1=pIC50 value<6, Score 2=pIC50 value from 6-7, Score 3=pIC50 value from 7-8, Score 4=pIC50 value>8.

The target in a further experiment is CDK2/cyclinE (h) (Homo sapiens, UniProt P24941). The experiment in a line: Kinase profiling C3.4 CDK2/cyclinE human. Conditions: test concentration of 10^−6 M. As to the method:
as §1, §2, §3
as §4, with “CDK2/cyclinE” for “CDK3/cyclinE”

A further experiment deals with CDK6/cyclinD3 human (Homo sapiens, UniProt Q00534). The experiment in a line: Kinase profiling C3.7 CDK6/cyclinD3 human. The following applies: CDK6/cyclinD3, test concentration of 10^−6 M. As to the method:
as §1, §2, §3
as §4, with “CDK6/cyclinD3 human” for “CDK3/cyclinE (h)”

The target in another experiment is CDK1/cyclinB (h) (Homo sapiens, UniProt P06493). The experiment can be described thus: Kinase profiling C3.2 CDK1/cyclinB human. Conditions: test concentration of 10^−6 M. As to the method: as §1, §2, §3
as §4, with “CDK1/cyclinB” for “CDK3/cyclinE”

The next experiment has as its target CDK7/cyclinH/MAT1 (h) (Homo sapiens, UniProt P50613). The experiment in a line: Kinase profiling C3.8 CDK7/cyclinH/MAT1 human. Conditions: CDK7/cyclinH/MAT1, test concentration of 10^−6 M. As to the method: as §1, §2, §3
as §4, with “CDK7/cyclinH/MAT1” for “CDK3/cyclinE”, “500 μM peptide,” for “0.1 mg/ml histone H1,”

The target of the next experiment is CDK2/cyclinA (h) (Homo sapiens, UniProt P24941). The experiment can be described thus: Kinase profiling C3.3 CDK2/cyclinA human. Conditions: test concentration of 10^−6 M. As to the method:
as §1, §2, §3
as §4, with “CDK2/cyclinA” for “CDK3/cyclinE”

In a further experiment the target is GSK-3α (Homo sapiens, UniProt P49840). The experiment can be described thus: GSK-3 kinase assay (C1), GSK-3α. The following applies: 1 μM ATP, read-out: C1 Score α. As to the method: as §5
The next experiment addresses CDK5/p35 human (Homo sapiens, UniProt Q00535). The experiment can be described thus: Kinase profiling C3.6 CDK5/p35 human. Conditions: CDK5/p35, test concentration of 10^−6 M. As to the method: as §1, §2, §3
as §4, with “CDK5/p35 human” for “CDK3/cyclinE (h)”

GSK-3β, sequence (P49841 whole entry, species assumed): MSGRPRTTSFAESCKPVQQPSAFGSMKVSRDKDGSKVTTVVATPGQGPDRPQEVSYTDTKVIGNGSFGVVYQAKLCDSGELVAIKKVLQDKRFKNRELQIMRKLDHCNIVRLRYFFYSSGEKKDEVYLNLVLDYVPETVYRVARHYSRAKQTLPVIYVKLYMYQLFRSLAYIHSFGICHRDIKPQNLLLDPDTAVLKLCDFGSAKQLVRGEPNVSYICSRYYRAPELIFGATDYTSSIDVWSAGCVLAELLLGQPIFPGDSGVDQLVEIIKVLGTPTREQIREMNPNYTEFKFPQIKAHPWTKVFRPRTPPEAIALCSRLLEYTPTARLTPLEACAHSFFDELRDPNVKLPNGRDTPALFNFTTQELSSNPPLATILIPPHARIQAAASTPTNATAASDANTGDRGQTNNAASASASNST
CDK6/cyclinD3 human, sequence (Q00534 whole entry): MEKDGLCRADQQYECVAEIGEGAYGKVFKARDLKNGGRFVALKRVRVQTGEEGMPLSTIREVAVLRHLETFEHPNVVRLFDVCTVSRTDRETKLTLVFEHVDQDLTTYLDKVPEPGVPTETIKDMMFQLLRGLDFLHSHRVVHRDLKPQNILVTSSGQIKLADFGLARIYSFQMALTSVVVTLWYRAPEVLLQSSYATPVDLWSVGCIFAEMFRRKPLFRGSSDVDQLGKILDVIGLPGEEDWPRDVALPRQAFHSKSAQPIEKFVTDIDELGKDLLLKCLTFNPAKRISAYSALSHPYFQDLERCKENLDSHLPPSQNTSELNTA
CDK6/cyclinD3 human, sequence (P30281 whole entry partner): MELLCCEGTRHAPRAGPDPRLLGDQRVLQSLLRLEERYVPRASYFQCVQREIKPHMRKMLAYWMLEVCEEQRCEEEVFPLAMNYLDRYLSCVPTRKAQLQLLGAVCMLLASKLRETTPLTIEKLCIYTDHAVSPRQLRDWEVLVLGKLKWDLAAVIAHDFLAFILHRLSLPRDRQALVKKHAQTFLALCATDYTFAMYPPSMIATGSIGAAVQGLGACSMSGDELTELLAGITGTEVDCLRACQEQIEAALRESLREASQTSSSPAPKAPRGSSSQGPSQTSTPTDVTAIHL
CDK5/p35 human, sequence (Q00535 whole entry): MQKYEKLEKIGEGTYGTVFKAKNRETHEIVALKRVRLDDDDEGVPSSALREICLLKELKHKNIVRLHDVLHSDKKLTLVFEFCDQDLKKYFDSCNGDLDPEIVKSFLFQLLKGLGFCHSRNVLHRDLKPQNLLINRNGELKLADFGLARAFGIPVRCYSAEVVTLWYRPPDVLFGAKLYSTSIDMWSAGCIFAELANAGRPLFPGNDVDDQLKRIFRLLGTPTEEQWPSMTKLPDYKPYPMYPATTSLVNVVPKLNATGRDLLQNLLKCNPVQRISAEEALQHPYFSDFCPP
CDK5/p35 human, sequence (Q15078 whole entry partner): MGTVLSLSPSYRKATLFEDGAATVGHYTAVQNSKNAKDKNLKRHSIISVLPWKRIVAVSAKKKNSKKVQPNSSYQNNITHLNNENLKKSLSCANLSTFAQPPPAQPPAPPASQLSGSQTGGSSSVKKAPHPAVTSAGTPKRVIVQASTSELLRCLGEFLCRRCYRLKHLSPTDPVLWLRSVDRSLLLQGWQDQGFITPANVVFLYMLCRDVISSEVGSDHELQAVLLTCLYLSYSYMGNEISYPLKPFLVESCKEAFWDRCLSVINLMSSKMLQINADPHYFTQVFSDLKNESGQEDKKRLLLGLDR
CDK1/cyclinB (h), sequence (P06493 whole entry): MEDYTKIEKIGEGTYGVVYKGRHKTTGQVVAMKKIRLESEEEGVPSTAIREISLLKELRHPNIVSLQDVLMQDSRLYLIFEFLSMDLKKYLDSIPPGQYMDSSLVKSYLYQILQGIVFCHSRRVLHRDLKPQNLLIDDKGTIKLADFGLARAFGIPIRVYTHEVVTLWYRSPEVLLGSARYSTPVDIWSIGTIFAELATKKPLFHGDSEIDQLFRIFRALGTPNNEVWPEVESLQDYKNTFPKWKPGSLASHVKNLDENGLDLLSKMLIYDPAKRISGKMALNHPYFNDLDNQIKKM
CDK1/cyclinB (h), sequence (P14635 whole entry partner): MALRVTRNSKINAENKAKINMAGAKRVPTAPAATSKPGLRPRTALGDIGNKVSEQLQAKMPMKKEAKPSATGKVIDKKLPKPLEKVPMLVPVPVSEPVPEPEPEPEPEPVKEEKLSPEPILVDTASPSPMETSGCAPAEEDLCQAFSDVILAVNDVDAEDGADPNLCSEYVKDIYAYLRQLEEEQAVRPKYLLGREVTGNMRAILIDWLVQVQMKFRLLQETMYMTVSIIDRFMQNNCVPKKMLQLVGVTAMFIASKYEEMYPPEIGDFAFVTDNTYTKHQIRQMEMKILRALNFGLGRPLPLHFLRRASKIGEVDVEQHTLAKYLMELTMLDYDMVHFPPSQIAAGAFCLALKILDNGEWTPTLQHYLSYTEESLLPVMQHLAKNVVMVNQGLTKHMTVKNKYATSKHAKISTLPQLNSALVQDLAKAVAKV
GSK-3α, sequence (P49840 whole entry, species assumed): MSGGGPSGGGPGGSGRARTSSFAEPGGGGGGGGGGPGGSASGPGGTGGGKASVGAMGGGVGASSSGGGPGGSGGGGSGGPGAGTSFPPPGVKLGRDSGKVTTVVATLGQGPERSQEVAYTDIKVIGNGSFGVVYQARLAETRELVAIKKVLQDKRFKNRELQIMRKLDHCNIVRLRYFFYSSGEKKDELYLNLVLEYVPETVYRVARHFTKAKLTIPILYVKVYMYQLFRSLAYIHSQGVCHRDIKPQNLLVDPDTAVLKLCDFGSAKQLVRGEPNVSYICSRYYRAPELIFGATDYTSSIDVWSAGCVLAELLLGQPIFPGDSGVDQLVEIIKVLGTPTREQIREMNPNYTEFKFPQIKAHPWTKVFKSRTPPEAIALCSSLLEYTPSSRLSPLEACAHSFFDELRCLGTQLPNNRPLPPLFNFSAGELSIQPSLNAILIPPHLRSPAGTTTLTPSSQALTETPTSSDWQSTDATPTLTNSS
CDK7/cyclinH/MAT1 (h), sequence (P50613 whole entry): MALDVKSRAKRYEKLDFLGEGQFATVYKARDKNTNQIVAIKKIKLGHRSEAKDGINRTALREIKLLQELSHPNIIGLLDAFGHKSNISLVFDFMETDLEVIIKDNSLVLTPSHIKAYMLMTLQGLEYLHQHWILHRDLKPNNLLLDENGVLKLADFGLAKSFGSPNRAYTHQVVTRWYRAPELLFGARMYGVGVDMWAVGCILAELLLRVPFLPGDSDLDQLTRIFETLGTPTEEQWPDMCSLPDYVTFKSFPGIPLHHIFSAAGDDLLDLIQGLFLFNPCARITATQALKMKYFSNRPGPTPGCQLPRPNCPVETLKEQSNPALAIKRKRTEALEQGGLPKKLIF
CDK7/cyclinH/MAT1 (h), sequence (P51946 whole entry partner): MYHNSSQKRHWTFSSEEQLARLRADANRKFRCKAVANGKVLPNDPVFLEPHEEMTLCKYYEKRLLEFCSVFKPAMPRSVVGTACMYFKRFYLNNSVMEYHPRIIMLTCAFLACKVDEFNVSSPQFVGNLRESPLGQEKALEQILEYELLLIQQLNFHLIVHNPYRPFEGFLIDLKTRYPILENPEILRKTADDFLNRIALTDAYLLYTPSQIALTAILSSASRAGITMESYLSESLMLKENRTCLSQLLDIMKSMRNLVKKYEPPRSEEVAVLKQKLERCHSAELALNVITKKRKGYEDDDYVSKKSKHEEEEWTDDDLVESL
CDK7/cyclinH/MAT1 (h), sequence (P51948 whole entry partner): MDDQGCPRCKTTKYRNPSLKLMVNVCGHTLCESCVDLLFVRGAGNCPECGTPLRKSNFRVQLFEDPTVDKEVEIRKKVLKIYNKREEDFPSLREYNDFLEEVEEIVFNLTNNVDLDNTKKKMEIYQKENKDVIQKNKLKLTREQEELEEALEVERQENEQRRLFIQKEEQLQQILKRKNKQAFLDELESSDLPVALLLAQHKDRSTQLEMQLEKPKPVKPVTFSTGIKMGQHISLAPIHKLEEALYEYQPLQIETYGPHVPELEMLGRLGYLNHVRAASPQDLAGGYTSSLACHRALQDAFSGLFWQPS

`O=C1NCCCNc2cc(ccn2)-c2ncnc(n2)Nc2cccc(c2)CN2CCC[C@@H]12` [Compound 21]: the C3.5 score on CDK3/cyclinE (h) is 4 (Score 4 = >80% inhibition). In addition, the IC50 at GSK-3β and at GSK-3α was 100 to 1000 nM throughout. Further, the C3.4 score at CDK2/cyclinE (h) is given as 4 (Score 4 = >80% inhibition). At CDK6/cyclinD3 human, the C3.7 score is listed as 1 (Score 1 = 10-30% inhibition). For the same molecule, on CDK1/cyclinB (h), the C3.2 score was 4 (Score 4 = >80% inhibition). For the same molecule, the C3.8 score at CDK7/cyclinH/MAT1 (h) is given as 2 (Score 2 = 30-60% inhibition). Moreover, on CDK2/cyclinA (h), the C3.3 score is reported as 4 (Score 4 = >80% inhibition). Besides, the C3.6 score on CDK5/p35 human is 3 (Score 3 = 60-80% inhibition).

For `CN1CCC(=O)NCCNc2cc(ccn2)-c2ncnc(n2)Nc2cccc(c2)C1` [Compound 17], the C3.5 score at CDK3/cyclinE (h) was 4 (Score 4 = >80% inhibition). The IC50 on GSK-3β and at GSK-3α was 10 to 100 nM each time. For the same molecule, the C3.4 score on CDK2/cyclinE (h) is 4 (Score 4 = >80% inhibition). The C3.7 score at CDK6/cyclinD3 human is 2 (Score 2 = 30-60% inhibition). Further, at CDK1/cyclinB (h), the C3.2 score is on record as 4 (Score 4 = >80% inhibition). Besides, the C3.8 score on CDK7/cyclinH/MAT1 (h) is listed as 3 (Score 3 = 60-80% inhibition). Moreover, the C3.3 score on CDK2/cyclinA (h) is 4 (Score 4 = >80% inhibition). In addition, on CDK5/p35 human, the C3.6 score is 4 (Score 4 = >80% inhibition).

For the molecule `CN1CC(=O)NCCCc2cc(ccn2)-c2ncnc(n2)Nc2cc(Cl)ccc2C1` [Compound 31], the C3.5 score at CDK3/cyclinE (h) is 4 (Score 4 = >80% inhibition). The IC50 on GSK-3β and on GSK-3α was greater than 1000 nM throughout. Also, at CDK2/cyclinE (h), the C3.4 score is on record as 3 (Score 3 = 60-80% inhibition). The C3.7 score at CDK6/cyclinD3 human was 1 (Score 1 = 10-30% inhibition). The C3.2 score at CDK1/cyclinB (h) is recorded as 3 (Score 3 = 60-80% inhibition). The C3.8 score on CDK7/cyclinH/MAT1 (h) is 1 (Score 1 = 10-30% inhibition). For the same molecule, the C3.3 score on CDK2/cyclinA (h) is 2 (Score 2 = 30-60% inhibition). Moreover, the C3.6 score on CDK5/p35 human is 4 (Score 4 = >80% inhibition).

In the case of `O=C1CN2CCN(CC2)Cc2cccc(c2)Nc2ncnc(n2)-c2cccc(c2)NCCN1` [Compound 58], on CDK3/cyclinE (h), the C3.5 score is given as 1 (Score 1 = 10-30% inhibition). Besides, the C3.4 score on CDK2/cyclinE (h) is 2 (Score 2 = 30-60% inhibition). Also, the C3.7 score at CDK6/cyclinD3 human is on record as 1 (Score 1 = 10-30% inhibition). In addition, the C3.2 score on CDK1/cyclinB (h) is given as 2 (Score 2 = 30-60% inhibition). Moreover, at CDK2/cyclinA (h), the C3.3 score was 3 (Score 3 = 60-80% inhibition). In addition, on GSK-3α, the IC50 is 10 to 100 nM. The C3.6 score on CDK5/p35 human is on record as 2 (Score 2 = 30-60% inhibition).

For the molecule `O=C1CCN2CCN(CC2)Cc2cccc(c2)Nc2ncnc(n2)-c2ccnc(c2)NCCCN1` [Compound 22], the C3.5 score on CDK3/cyclinE (h) was 4 (Score 4 = >80% inhibition). The IC50 at GSK-3β and at GSK-3α was 100 to 1000 nM in each case. Besides, the C3.4 score on CDK2/cyclinE (h) is on record as 4 (Score 4 = >80% inhibition). The C3.7 score at CDK6/cyclinD3 human was 1 (Score 1 = 10-30% inhibition). At CDK1/cyclinB (h), the C3.2 score is 4 (Score 4 = >80% inhibition). Also, at CDK7/cyclinH/MAT1 (h), the C3.8 score was 1 (Score 1 = 10-30% inhibition). In addition, at CDK2/cyclinA (h), the C3.3 score is on record as 4 (Score 4 = >80% inhibition). Besides, the C3.6 score at CDK5/p35 human is reported as 2 (Score 2 = 30-60% inhibition).

For the molecule `CN1CCCC(=O)NCCc2cccc(c2)Nc2ncnc(n2)-c2ccnc(c2)CCC1` [Compound 24], the C3.5 score at CDK3/cyclinE (h) is listed as 2 (Score 2 = 30-60% inhibition). Besides, the figures for the IC50 on GSK-3β and at GSK-3α were 10 to 100 nM and 100 to 1000 nM, respectively. Besides, the C3.4 score on CDK2/cyclinE (h) is 3 (Score 3 = 60-80% inhibition). In addition, the C3.7 score on CDK6/cyclinD3 human is 1 (Score 1 = 10-30% inhibition). Also, at CDK1/cyclinB (h), the C3.2 score was 2 (Score 2 = 30-60% inhibition). Besides, the C3.8 score on CDK7/cyclinH/MAT1 (h) was 3 (Score 3 = 60-80% inhibition). Further, the C3.3 score at CDK2/cyclinA (h) is recorded as 3 (Score 3 = 60-80% inhibition). Besides, at CDK5/p35 human, the C3.6 score is 2 (Score 2 = 30-60% inhibition).

`CN1CCC(=O)NCCNc2cc(ccn2)-c2ncnc(n2)Nc2cccc(c2)C1` [Compound 20]: the C3.5 score on CDK3/cyclinE (h) is 4 (Score 4 = >80% inhibition). Further, the “C1 Score β” value on GSK-3β was 3 (Score 3=pIC50 value from 7-8). The C3.4 score on CDK2/cyclinE (h) is 4 (Score 4 = >80% inhibition). The C3.7 score at CDK6/cyclinD3 human is recorded as 1 (Score 1 = 10-30% inhibition). Also, the C3.2 score at CDK1/cyclinB (h) is reported as 3 (Score 3 = 60-80% inhibition). The C3.8 score at CDK7/cyclinH/MAT1 (h) is given as 2 (Score 2 = 30-60% inhibition). Besides, on CDK2/cyclinA (h), the C3.3 score is listed as 4 (Score 4 = >80% inhibition). In addition, on GSK-3α, the IC50 was in the range of 100 to 1000 nM. Further, the C3.6 score on CDK5/p35 human is reported as 3 (Score 3 = 60-80% inhibition).

These data come from patent US8778919B2, “Cyclic anilino—pyridinotriazines” (Janssen Pharmaceutica NV, priority 2005, dated 2014).
